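Following 48 hours of exposure in 96-well plates, responses at five concentrations were used to interpolate endpoints linearly. GI50 marks 50% less growth.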 Active and inactive are the calls of the source. Cut-off read from the data, not from the text of the source: active = GI50 up to about 1.1 µM and inactive = higher. Residues, ends and D or L forms follow the SMILES beside them. *: point of attachment. Boc = CC(C)(C)OC(=O)*; OBn = c1ccc(CO*)cc1; Bn = c1ccc(C*)cc1
Legend:
Assay in all cases: DTP human tumour cell line panel, 48 h
[1] = test system: A549
[2] = test system: 786-0
[3] = test system: SF-268
[4] = test system: HCC 2998
[5] = test system: NCI-H460
[6] = test system: RXF 393
[7] = test system: MDA-MB-231
[8] = test system: OVCAR-3
[9] = test system: SK-MEL-28
[10] = test system: UACC-257
[11] = test system: IGROV-1
[12] = test system: NCI-H522
[13] = test system: K562
[14] = test system: SF-539
[15] = test system: SR
[16] = test system: SK-OV-3
[17] = test system: MDA-N
[18] = test system: CAKI-1
[19] = test system: OVCAR-5

Structure (SMILES) | GI50 [1] | GI50 [2] | GI50 [3] | GI50 [4] | GI50 [5] | GI50 [6] | GI50 [7] | GI50 [8] | GI50 [9] | GI50 [10] | GI50 [11] | GI50 [12] | GI50 [13] | GI50 [14] | GI50 [15] | GI50 [16] | GI50 [17] | GI50 [18] | GI50 [19]
COc1ccc(CC2NC(=O)/C=C/CC(C(C)C3OC3c3ccccc3)OC(=O)C(CC(C)C)OC(=O)C(C)CNC2=O)cc1Cl (stereo not drawn) | < 1e-05 µM (active) | < 1e-05 µM (active) | 4.55e-05 µM (active) | 3.07e-05 µM (active) | < 1e-05 µM (active) | < 1e-05 µM (active) | 1.47e-05 µM (active) | < 1e-05 µM (active) | 2.43e-05 µM (active) | 4.07e-05 µM (active) | 2.36e-05 µM (active) | < 1e-05 µM (active) | < 1e-05 µM (active) | 1.34e-05 µM (active) | < 1e-05 µM (active) | 6.68e-05 µM (active) | < 1e-05 µM (active) | 1.01e-05 µM (active) | –
Nc1ccccc1C(=O)CCC1C(=O)NC(=S)NC1=O | > 100 µM (inactive) | > 100 µM (inactive) | > 100 µM (inactive) | > 100 µM (inactive) | > 100 µM (inactive) | > 100 µM (inactive) | – | > 100 µM (inactive) | > 100 µM (inactive) | > 100 µM (inactive) | > 100 µM (inactive) | > 100 µM (inactive) | > 100 µM (inactive) | > 100 µM (inactive) | > 100 µM (inactive) | > 100 µM (inactive) | > 100 µM (inactive) | > 100 µM (inactive) | > 100 µM (inactive)
CCN(CC)Cc1ccccc1CC(=O)N1c2ccccc2C(=O)Nc2cccnc21 | > 100 µM (inactive) | 62.2 µM (inactive) | > 100 µM (inactive) | > 100 µM (inactive) | > 100 µM (inactive) | > 100 µM (inactive) | > 100 µM (inactive) | > 100 µM (inactive) | > 100 µM (inactive) | > 100 µM (inactive) | > 100 µM (inactive) | > 100 µM (inactive) | 79.6 µM (inactive) | > 100 µM (inactive) | 34.3 µM (inactive) | > 100 µM (inactive) | > 100 µM (inactive) | > 100 µM (inactive) | > 100 µM (inactive)
CCCCCCCCCc1c(Cl)nc(Cl)nc1Cl | 20.9 µM (inactive) | 13.9 µM (inactive) | 18.7 µM (inactive) | 3.74 µM (inactive) | 18.2 µM (inactive) | 14.4 µM (inactive) | 12.3 µM (inactive) | 17.9 µM (inactive) | 19.4 µM (inactive) | 19.8 µM (inactive) | 13.2 µM (inactive) | 3.67 µM (inactive) | 6.68 µM (inactive) | 18.2 µM (inactive) | 2.84 µM (inactive) | 20.4 µM (inactive) | 14.7 µM (inactive) | 4.78 µM (inactive) | 21 µM (inactive)
c1ccc(/N=c2/[nH]c3ccccc3s/c2=N/c2ccccc2)cc1 | > 100 µM (inactive) | > 100 µM (inactive) | > 100 µM (inactive) | 42.7 µM (inactive) | 28.1 µM (inactive) | 48.4 µM (inactive) | > 100 µM (inactive) | – | > 100 µM (inactive) | > 100 µM (inactive) | > 100 µM (inactive) | 26.3 µM (inactive) | > 100 µM (inactive) | > 100 µM (inactive) | > 100 µM (inactive) | > 100 µM (inactive) | – | > 100 µM (inactive) | > 100 µM (inactive)
Cc1cc(=O)oc2c(CNC(CO)C(=O)O)c(O)ccc12 (stereo not drawn) | > 100 µM (inactive) | > 100 µM (inactive) | > 100 µM (inactive) | – | > 100 µM (inactive) | > 100 µM (inactive) | > 100 µM (inactive) | > 100 µM (inactive) | > 100 µM (inactive) | > 100 µM (inactive) | > 100 µM (inactive) | > 100 µM (inactive) | > 100 µM (inactive) | > 100 µM (inactive) | 94.2 µM (inactive) | > 100 µM (inactive) | > 100 µM (inactive) | > 100 µM (inactive) | > 100 µM (inactive)
c1ccc2c(c1)oc1ccc3nsnc3c12 | > 100 µM (inactive) | > 100 µM (inactive) | > 100 µM (inactive) | > 100 µM (inactive) | > 10 µM (inactive) | 71 µM (inactive) | – | > 100 µM (inactive) | > 100 µM (inactive) | > 100 µM (inactive) | > 100 µM (inactive) | > 100 µM (inactive) | > 100 µM (inactive) | > 100 µM (inactive) | > 100 µM (inactive) | > 100 µM (inactive) | – | > 100 µM (inactive) | > 100 µM (inactive)
COc1cc(Br)c(/C=N\c2cccc3cc(OC)c(OC)cc23)cc1OC | > 100 µM (inactive) | 22.6 µM (inactive) | 45.4 µM (inactive) | > 100 µM (inactive) | > 100 µM (inactive) | 20.2 µM (inactive) | – | 23.5 µM (inactive) | 88.3 µM (inactive) | 85.7 µM (inactive) | 61.2 µM (inactive) | > 100 µM (inactive) | 19.9 µM (inactive) | 22.1 µM (inactive) | 15.5 µM (inactive) | > 100 µM (inactive) | – | 41.5 µM (inactive) | > 100 µM (inactive)
O=C(O)CCCNc1ncc2c(n1)-c1ccccc1OC2 | > 100 µM (inactive) | > 100 µM (inactive) | > 100 µM (inactive) | – | > 100 µM (inactive) | > 100 µM (inactive) | > 100 µM (inactive) | > 100 µM (inactive) | > 100 µM (inactive) | > 100 µM (inactive) | 47.8 µM (inactive) | > 100 µM (inactive) | > 100 µM (inactive) | > 100 µM (inactive) | > 100 µM (inactive) | > 100 µM (inactive) | > 100 µM (inactive) | > 100 µM (inactive) | > 100 µM (inactive)
C1CCC2C(C1)CCCC2NC1=NCCO1 (stereo not drawn) | > 100 µM (inactive) | > 100 µM (inactive) | > 100 µM (inactive) | 72.9 µM (inactive) | > 100 µM (inactive) | 86.7 µM (inactive) | > 100 µM (inactive) | > 100 µM (inactive) | 76 µM (inactive) | 69.3 µM (inactive) | > 100 µM (inactive) | > 100 µM (inactive) | > 100 µM (inactive) | > 100 µM (inactive) | 45 µM (inactive) | > 100 µM (inactive) | > 100 µM (inactive) | > 100 µM (inactive) | > 100 µM (inactive)
O=C1C(Cl)=C(N2CCN(CCOCCO)CC2)C(=O)c2ccccc21 | 18.7 µM (inactive) | 11.7 µM (inactive) | 16.4 µM (inactive) | 18.2 µM (inactive) | 17.9 µM (inactive) | 3.13 µM (inactive) | 4.43 µM (inactive) | 2.85 µM (inactive) | 17.3 µM (inactive) | 5.12 µM (inactive) | 15.3 µM (inactive) | 1.77 µM (inactive) | 2.2 µM (inactive) | 18.9 µM (inactive) | 2.72 µM (inactive) | 15.3 µM (inactive) | 2.18 µM (inactive) | 15.7 µM (inactive) | 22.4 µM (inactive)
c1ccc(C2CC(c3ccc4ccccc4c3)=Nc3ccccc3S2)cc1 (stereo not drawn) | 18.3 µM (inactive) | 16.6 µM (inactive) | 17 µM (inactive) | 11.9 µM (inactive) | 15.7 µM (inactive) | 19.1 µM (inactive) | – | 17.3 µM (inactive) | 18.3 µM (inactive) | 19.5 µM (inactive) | 22.8 µM (inactive) | 17 µM (inactive) | 20 µM (inactive) | 16.7 µM (inactive) | 23.7 µM (inactive) | 38.5 µM (inactive) | – | > 10 µM (inactive) | 21.8 µM (inactive)
C[C@@H]1C(O)CC[C@H](C)C12CC=CC2=O (stereo partly drawn) | > 100 µM (inactive) | > 100 µM (inactive) | > 100 µM (inactive) | > 100 µM (inactive) | > 100 µM (inactive) | > 100 µM (inactive) | > 100 µM (inactive) | > 100 µM (inactive) | > 100 µM (inactive) | > 100 µM (inactive) | > 100 µM (inactive) | > 100 µM (inactive) | > 100 µM (inactive) | > 100 µM (inactive) | > 100 µM (inactive) | > 100 µM (inactive) | > 100 µM (inactive) | > 100 µM (inactive) | > 100 µM (inactive)
CC#Cc1ccc(-c2ccccc2)s1 | > 100 µM (inactive) | > 100 µM (inactive) | > 100 µM (inactive) | – | > 100 µM (inactive) | > 100 µM (inactive) | > 100 µM (inactive) | > 100 µM (inactive) | > 100 µM (inactive) | > 100 µM (inactive) | > 100 µM (inactive) | > 100 µM (inactive) | – | > 100 µM (inactive) | > 100 µM (inactive) | – | > 100 µM (inactive) | > 100 µM (inactive) | > 100 µM (inactive)
CC(C)CC(NC(=O)C(Cc1ccccc1)NC(=O)C(COCc1ccccc1)NC(=O)OC(C)(C)C)C(=O)OCc1ccccc1 (stereo not drawn) (Boc-Ser(Bn)-Phe-Leu-OBn; configuration not given here) | – | 17.1 µM (inactive) | 21.7 µM (inactive) | 14.7 µM (inactive) | 11.9 µM (inactive) | – | 27.1 µM (inactive) | 20 µM (inactive) | 19.5 µM (inactive) | 86.7 µM (inactive) | 17.4 µM (inactive) | 13.8 µM (inactive) | 9.57 µM (inactive) | 33.9 µM (inactive) | 20.2 µM (inactive) | 36.4 µM (inactive) | 69 µM (inactive) | 30 µM (inactive) | 39.4 µM (inactive)

Reference: ChEMBL document CHEMBL1201862, “PubChem BioAssay data set” (2004)
